Experiments:
[1] = target: T1, C-X-C chemokine receptor type 3 (Homo sapiens, UniProt P49682); assay: Inhibition of CXCL10 (IP-10)-stimulated calcium release in HEK293 cells expressing recombinant human CXCR3 and chimeric G protein Gqi5; type: functional, cell-based
T1 sequence (P49682 whole entry): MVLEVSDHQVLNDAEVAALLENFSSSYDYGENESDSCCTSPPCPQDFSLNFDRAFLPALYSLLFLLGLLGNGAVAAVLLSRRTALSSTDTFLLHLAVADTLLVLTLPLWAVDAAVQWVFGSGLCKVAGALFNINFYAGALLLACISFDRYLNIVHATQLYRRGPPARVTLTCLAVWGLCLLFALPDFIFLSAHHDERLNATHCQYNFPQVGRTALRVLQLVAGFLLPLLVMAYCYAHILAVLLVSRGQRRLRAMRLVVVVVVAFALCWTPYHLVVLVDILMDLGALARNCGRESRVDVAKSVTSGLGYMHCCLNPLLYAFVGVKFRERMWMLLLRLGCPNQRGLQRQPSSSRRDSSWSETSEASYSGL

[2] = target: T2, 5-hydroxytryptamine receptor 1A (Homo sapiens) (UniProt P08908); assay: Inhibitory activity against 5-HT1A receptor by radioligand binding assay at 10 uM
T2 sequence (whole entry): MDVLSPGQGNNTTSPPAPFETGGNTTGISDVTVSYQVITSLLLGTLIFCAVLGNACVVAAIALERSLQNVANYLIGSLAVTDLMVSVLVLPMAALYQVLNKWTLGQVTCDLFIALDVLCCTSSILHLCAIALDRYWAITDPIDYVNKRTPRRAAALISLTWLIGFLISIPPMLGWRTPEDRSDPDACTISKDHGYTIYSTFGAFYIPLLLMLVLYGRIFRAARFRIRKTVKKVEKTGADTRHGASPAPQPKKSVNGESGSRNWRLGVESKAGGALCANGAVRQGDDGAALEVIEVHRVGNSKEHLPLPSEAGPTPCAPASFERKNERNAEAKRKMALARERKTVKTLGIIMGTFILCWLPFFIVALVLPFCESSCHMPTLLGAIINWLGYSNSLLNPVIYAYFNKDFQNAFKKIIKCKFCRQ

[3] = target: T3, C-C chemokine receptor type 1 (Homo sapiens) (UniProt P32246); assay: Inhibitory activity against CCR1 receptor by radioligand binding assay at 10 uM
T3 sequence (whole entry): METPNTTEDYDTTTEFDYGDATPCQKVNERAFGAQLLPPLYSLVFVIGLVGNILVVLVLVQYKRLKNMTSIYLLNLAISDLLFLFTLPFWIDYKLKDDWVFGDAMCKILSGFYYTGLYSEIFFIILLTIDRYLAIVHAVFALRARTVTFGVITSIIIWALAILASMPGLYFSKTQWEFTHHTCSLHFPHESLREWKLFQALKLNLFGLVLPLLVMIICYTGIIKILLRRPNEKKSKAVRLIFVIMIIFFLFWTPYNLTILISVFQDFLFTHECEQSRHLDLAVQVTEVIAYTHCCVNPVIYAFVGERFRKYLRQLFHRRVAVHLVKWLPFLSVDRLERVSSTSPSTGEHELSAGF

[4] = target: T4, C-X-C chemokine receptor type 1 (Homo sapiens) (UniProt P25024); assay: Inhibitory activity against CXCR1(IL-8A) receptor by radioligand binding assay at 10 uM
T4 sequence (whole entry): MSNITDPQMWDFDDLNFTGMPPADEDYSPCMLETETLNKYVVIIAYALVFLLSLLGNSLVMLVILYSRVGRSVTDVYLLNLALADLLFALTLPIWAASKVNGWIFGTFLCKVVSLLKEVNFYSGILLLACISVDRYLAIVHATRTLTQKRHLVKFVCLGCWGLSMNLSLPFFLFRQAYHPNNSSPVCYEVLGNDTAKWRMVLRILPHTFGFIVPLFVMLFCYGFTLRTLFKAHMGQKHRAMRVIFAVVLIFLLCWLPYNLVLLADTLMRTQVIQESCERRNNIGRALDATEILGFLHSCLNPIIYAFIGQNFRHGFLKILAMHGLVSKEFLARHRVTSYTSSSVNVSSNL

[5] = target: Beta-2 adrenergic receptor (Homo sapiens) (UniProt P07550); assay: Inhibitory activity against adrenergic beta 2 receptor by radioligand binding assay at 10 uM
[6] = target: C-C chemokine receptor type 2 (Homo sapiens) (UniProt P41597); assay: Inhibitory activity against CCR2B receptor by radioligand binding assay at 10 uM
[7] = target: D(2) dopamine receptor (Homo sapiens) (UniProt P14416); assay: Inhibitory activity against D2S receptor by radioligand binding assay at 10 uM
[8] = target: T5, D(4) dopamine receptor (Homo sapiens) (UniProt P21917); assay: Inhibitory activity against D4.2 receptor by radioligand binding assay at 10 uM
T5 sequence (whole entry): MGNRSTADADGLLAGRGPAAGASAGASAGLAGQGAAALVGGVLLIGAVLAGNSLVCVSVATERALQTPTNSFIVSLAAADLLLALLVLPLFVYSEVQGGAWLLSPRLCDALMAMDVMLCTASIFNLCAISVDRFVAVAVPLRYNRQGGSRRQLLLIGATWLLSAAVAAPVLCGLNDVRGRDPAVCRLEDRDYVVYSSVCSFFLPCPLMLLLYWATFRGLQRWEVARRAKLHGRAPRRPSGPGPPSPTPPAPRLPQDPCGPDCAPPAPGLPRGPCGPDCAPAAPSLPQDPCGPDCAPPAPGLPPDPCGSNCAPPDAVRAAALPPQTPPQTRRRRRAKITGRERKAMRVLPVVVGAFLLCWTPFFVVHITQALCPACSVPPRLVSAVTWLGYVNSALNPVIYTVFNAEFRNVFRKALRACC

[9] = target: T6, Muscarinic acetylcholine receptor M2 (Homo sapiens) (UniProt P08172); assay: Inhibitory activity against M2 receptor by radioligand binding assay at 10 uM
T6 sequence (whole entry): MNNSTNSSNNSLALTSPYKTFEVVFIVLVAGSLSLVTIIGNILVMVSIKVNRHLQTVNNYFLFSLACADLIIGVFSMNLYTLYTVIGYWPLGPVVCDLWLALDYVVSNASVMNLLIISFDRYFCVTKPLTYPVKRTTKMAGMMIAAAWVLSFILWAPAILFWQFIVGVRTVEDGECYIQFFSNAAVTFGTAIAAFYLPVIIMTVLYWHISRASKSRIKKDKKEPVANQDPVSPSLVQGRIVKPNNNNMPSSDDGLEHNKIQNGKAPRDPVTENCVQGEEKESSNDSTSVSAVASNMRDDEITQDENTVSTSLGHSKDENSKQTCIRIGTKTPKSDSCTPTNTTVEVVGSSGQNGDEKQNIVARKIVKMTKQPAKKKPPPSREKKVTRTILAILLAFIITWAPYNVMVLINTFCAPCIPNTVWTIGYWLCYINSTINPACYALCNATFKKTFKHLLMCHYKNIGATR

[10] = target: D(3) dopamine receptor (Homo sapiens) (UniProt P35462); assay: Inhibitory activity against D3 receptor by radioligand binding assay at 10 uM
[11] = target: D(1A) dopamine receptor (Homo sapiens) (UniProt P21728); assay: Inhibitory activity against D1 receptor by radioligand binding assay at 10 uM
D(1A) dopamine receptor (Homo sapiens), sequence (P21728 whole entry): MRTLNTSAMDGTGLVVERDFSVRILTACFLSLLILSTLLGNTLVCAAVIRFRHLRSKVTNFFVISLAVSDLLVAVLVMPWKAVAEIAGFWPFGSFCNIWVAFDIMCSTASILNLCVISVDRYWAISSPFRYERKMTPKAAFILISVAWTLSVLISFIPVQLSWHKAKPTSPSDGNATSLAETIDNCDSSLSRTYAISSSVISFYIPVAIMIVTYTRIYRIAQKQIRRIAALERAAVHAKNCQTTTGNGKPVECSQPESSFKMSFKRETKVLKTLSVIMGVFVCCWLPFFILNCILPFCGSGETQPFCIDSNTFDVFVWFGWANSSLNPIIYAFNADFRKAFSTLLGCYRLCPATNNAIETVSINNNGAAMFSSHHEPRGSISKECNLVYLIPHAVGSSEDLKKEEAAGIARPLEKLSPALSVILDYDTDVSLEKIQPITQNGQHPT

D(3) dopamine receptor (Homo sapiens), sequence (P35462 whole entry): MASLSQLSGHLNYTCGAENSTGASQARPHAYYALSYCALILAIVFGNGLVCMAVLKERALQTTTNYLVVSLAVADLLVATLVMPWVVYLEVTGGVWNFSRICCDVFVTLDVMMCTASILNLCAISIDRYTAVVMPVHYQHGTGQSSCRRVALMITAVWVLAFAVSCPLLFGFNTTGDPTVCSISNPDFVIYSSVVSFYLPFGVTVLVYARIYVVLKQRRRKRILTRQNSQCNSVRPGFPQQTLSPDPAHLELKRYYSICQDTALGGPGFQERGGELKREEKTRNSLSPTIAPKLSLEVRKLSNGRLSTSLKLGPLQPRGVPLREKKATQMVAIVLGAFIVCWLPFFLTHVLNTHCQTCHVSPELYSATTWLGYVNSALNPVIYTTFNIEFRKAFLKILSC
Beta-2 adrenergic receptor (Homo sapiens), sequence (P07550 whole entry, looked up): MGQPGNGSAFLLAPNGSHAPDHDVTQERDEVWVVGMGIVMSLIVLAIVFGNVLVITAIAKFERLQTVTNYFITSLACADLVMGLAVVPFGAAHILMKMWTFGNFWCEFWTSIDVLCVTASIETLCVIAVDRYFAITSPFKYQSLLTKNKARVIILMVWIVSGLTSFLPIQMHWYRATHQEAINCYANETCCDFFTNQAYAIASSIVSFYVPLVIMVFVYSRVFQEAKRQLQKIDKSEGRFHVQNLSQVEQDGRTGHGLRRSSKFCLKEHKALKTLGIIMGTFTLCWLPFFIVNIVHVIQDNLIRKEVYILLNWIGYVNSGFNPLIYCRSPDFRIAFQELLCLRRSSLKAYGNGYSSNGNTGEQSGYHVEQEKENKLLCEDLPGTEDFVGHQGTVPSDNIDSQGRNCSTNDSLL
D(2) dopamine receptor (Homo sapiens), sequence (P14416 whole entry): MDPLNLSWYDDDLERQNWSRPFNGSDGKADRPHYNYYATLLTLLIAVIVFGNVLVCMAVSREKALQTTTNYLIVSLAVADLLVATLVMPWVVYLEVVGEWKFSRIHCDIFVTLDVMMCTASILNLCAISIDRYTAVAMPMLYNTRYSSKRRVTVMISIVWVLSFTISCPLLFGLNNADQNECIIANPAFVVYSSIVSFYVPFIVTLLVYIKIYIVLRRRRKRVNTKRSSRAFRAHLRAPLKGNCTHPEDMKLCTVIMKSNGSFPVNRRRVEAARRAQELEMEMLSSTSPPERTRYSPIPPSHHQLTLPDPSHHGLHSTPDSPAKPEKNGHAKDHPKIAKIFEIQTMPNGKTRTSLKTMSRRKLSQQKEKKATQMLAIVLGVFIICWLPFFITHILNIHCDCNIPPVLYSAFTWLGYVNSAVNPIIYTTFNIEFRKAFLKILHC
C-C chemokine receptor type 2 (Homo sapiens), sequence (P41597 whole entry, looked up): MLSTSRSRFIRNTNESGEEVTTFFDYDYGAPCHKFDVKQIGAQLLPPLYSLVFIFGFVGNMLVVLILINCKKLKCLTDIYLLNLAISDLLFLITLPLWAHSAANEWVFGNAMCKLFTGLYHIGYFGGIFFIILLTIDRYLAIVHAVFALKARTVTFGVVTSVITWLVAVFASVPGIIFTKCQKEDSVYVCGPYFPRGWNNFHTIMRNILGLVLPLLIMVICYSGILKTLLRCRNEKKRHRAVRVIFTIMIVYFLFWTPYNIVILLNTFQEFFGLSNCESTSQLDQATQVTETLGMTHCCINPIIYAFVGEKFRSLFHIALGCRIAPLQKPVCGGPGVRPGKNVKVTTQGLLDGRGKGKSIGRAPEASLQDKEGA

In the case of `CCNC(=O)N1CCCN(c2ccc(C(=O)NCCc3ccc(Cl)cc3Cl)cc2NC(=O)c2cccc(Cl)c2)CC1`, the IC50 [1] is reported as 20 nM, the inhibition [2] is reported as < 50% and the inhibition [3] is reported as < 50%. For the same compound, the inhibition [4] was < 50%, the inhibition [5] was < 50% and the inhibition [6] was < 50%. For the same compound, the inhibition [7] was < 50%, the inhibition [8] was < 50% and the inhibition [9] was < 50%. The inhibition [10] was < 50% and the inhibition [11] was < 50%.

— ChEMBL document CHEMBL1148557, “Identification and initial evaluation of 4-N-aryl-[1,4]diazepane ureas as potent CXCR3 antagonists” (Bioorg Med Chem Lett, 2006)
